Laboratory results as given in patent US12377104B1, “Methods for treating a fatty liver disease” (Madrigal Pharmaceuticals, Inc., priority 2024, dated 2025).

Test system: adults with biopsy-confirmed NASH and fibrosis stage F1B, F2, or F3
Assay: MAESTRO-NASH phase 3: liver biopsy end points at week 52
Format: in vivo, human
Experimental: A phase 3 trial was conducted involving adults with biopsy-confirmed NASH and a fibrosis stage of F1B, F2, or F3 (stages range from F0 [no fibrosis] to F4 [cirrhosis]).
Randomization was performed with the use of an interactive Webresponse system. Patients were stratified according to status with respect to type 2 diabetes (presence or absence) and fibrosis stage (F1, F2, or F3). Throughout the trial, patients received nutrition and exercise counseling according to current recommendations. Patients were unaware of the trial-group assignments, as were site personnel, personnel of contract research organizations, and sponsor personnel who were conducting the trial, administering the investigational product, and performing clinical assessments. Selected persons were aware of the trial-group assignments to facilitate dispensation of resmetirom or placebo. All trial personnel were unaware of the results of postbaseline tests that could reveal the trial-group assignments, including levels of total and free thyroxine (T4), sex hormone-binding globulin, and lipids as well as magnetic resonance imaging proton density fat fraction (MRI-PDFF).
Screening biopsy results were used as baseline values for histologic variables, and a second biopsy was performed at week 52. Biopsy specimens on glass slides were assessed centrally by two independent expert pathologists (the second and third authors) to determine the NAFLD activity score and fibrosis stage (according to NASH Clinical Research Network criteria). For the primary analysis, all screening or baseline biopsy specimens and week 52 biopsy specimens on glass slides were reread independently by both pathologists in large unpaired groups of screening or baseline biopsy specimens (50 to 100 slides per group, spiked with biopsy specimens obtained from patients who had screening failure) or a separate matched set of week 52 biopsy specimens (50 to 100 slides per group). The pathologists were unaware of the trial-group assignments, patient characteristics, and each other's assessments. A consensus review was conducted as a supportive analysis wherein the two pathologists read blinded (to time of biopsy and identification code) digitized images for cases in which there was disagreement on the primary read with respect to response status for the two primary end points or a reduction in fibrosis by at least two stages. Only the NAFLD activity scores or fibrosis components that determined the response for which there was disagreement between the pathologists were reread. Details are provided in the Supplementary Appendix.
The primary statistical analysis model used the Cochran-Mantel-Haenszel test to determine response with respect to the biopsy end points.

**Q.** How did the “Both NASH resolution and fibrosis improvement by ≥1 stage, difference from placebo” value (80 mg) turn out when `CC(C)c1cc(Oc2c(Cl)cc(-n3nc(C#N)c(=O)[nH]c3=O)cc2Cl)n[nH]c1=O` [Resmetirom, 2-(3,5-dichloro-4-((5-isopropyl-6-oxo-1,6-dihydropyridazin-3-yl)oxy)phenyl)-3,5-dioxo-2,3,4,5-tetrahydro-1,2,4-triazine-6-carbonitrile] was run?
**A.** Its value is 9.5 percentage points.

**Q.** What about the “Both NASH resolution and fibrosis improvement by ≥1 stage, percent with response” value (80 mg) of the same molecule?
**A.** The value was 14.2%.

**Q.** And the “Fibrosis improvement by ≥1 stage with no worsening of NAFLD activity score, difference from placebo” value (80 mg)?
**A.** The value was 10.2 percentage points.

**Q.** And the “Fibrosis improvement by ≥1 stage with no worsening of NAFLD activity score, percent with response” value (80 mg)?
**A.** The value was 24.2%.

**Q.** And the “Improvement in each component of NAFLD activity score, difference from placebo” value (80 mg)?
**A.** The value was 16.1 percentage points.

**Q.** And the “Improvement in each component of NAFLD activity score, percent with response” value (80 mg)?
**A.** Its value is 23.3%.

**Q.** And the “Improvement in fibrosis by ≥2 stages, difference from placebo” value (80 mg)?
**A.** Its value is 5.6 percentage points.

**Q.** What about the “Improvement in fibrosis by ≥2 stages, percent with response” value (80 mg) of the same molecule?
**A.** The value was 8.3%.

**Q.** What about the “NASH resolution with no worsening of fibrosis, difference from placebo” value (80 mg) of the same molecule?
**A.** The value was 16.4 percentage points.

**Q.** And the “NASH resolution with no worsening of fibrosis, percent with response” value (80 mg)?
**A.** Its value is 25.9%.

**Q.** What about the “≥2-Point improvement in NAFLD activity score with improvement in fibrosis, difference from placebo” value (80 mg) of the same molecule?
**A.** The value was 10.5 percentage points.

**Q.** What about the “≥2-Point improvement in NAFLD activity score with improvement in fibrosis, percent with response” value (80 mg) of the same molecule?
**A.** Its value is 18.8%.

**Q.** What about the “≥2-Point improvement in NAFLD activity score with no worsening of fibrosis, difference from placebo” value (80 mg) of the same molecule?
**A.** The value was 20.2 percentage points.

**Q.** And the “≥2-Point improvement in NAFLD activity score with no worsening of fibrosis, percent with response” value (80 mg)?
**A.** The value was 41.3%.

**Q.** And the “Both NASH resolution and fibrosis improvement by ≥1 stage, difference from placebo” value (100 mg)?
**A.** The value was 11.6 percentage points.

**Q.** What about the “Both NASH resolution and fibrosis improvement by ≥1 stage, percent with response” value (100 mg) of the same molecule?
**A.** Its value is 16.0%.

**Q.** And the “Fibrosis improvement by ≥1 stage with no worsening of NAFLD activity score, difference from placebo” value (100 mg)?
**A.** The value was 11.8 percentage points.

**Q.** And the “Fibrosis improvement by ≥1 stage with no worsening of NAFLD activity score, percent with response” value (100 mg)?
**A.** Its value is 25.9%.

**Q.** What about the “Improvement in each component of NAFLD activity score, difference from placebo” value (100 mg) of the same molecule?
**A.** The value was 20.9 percentage points.

**Q.** And the “Improvement in each component of NAFLD activity score, percent with response” value (100 mg)?
**A.** Its value is 27.9%.

**Q.** What about the “Improvement in fibrosis by ≥2 stages, difference from placebo” value (100 mg) of the same molecule?
**A.** The value was 7.4 percentage points.

**Q.** What about the “Improvement in fibrosis by ≥2 stages, percent with response” value (100 mg) of the same molecule?
**A.** Its value is 10.1%.

**Q.** And the “NASH resolution with no worsening of fibrosis, difference from placebo” value (100 mg)?
**A.** Its value is 20.7 percentage points.

**Q.** What about the “NASH resolution with no worsening of fibrosis, percent with response” value (100 mg) of the same molecule?
**A.** Its value is 29.9%.

**Q.** And the “≥2-Point improvement in NAFLD activity score with improvement in fibrosis, difference from placebo” value (100 mg)?
**A.** Its value is 13.0 percentage points.

**Q.** What about the “≥2-Point improvement in NAFLD activity score with improvement in fibrosis, percent with response” value (100 mg) of the same molecule?
**A.** The value was 21.2%.

**Q.** And the “≥2-Point improvement in NAFLD activity score with no worsening of fibrosis, difference from placebo” value (100 mg)?
**A.** The value was 23.8 percentage points.

**Q.** And the “≥2-Point improvement in NAFLD activity score with no worsening of fibrosis, percent with response” value (100 mg)?
**A.** The value was 44.9%.
